Where a SMILES comes first, the peptide text is derived from it. Bridges are numbered along the chain shown (N, C = ends). [ ]: non-standard residue; d: D form. The star is where a group is joined. ξ: configuration not given here. Bip = N[C@@H](Cc1ccc(-c2ccccc2)cc1)C(=O)O; Phe(3-Me) = Cc1cccc(C[C@H](N)C(=O)O)c1; 4Pal = N[C@@H](Cc1ccncc1)C(=O)O; Cha = N[C@@H](CC1CCCCC1)C(=O)O; Cit = NC(=O)NCCC[C@H](N)C(=O)O; Carboxymethyl = O=C(O)C*; NMeA = CN[C@@H](C)C(=O)O; Orn = NCCC[C@H](N)C(=O)O; Aun = NCCCCCCCCCCC(=O)O; Dab = NCC[C@H](N)C(=O)O; Dap = NC[C@H](N)C(=O)O; AEEA = NCCOCCOCC(=O)O; ξV = CC(C)C(N)C(=O)O
The molecules below were run against T1, PD-1/PD-L1 interaction (PE-labeled human PD-L1-Ig binding to Jurkat cell line over-expressing human PD-1) (Homo sapiens, UniProt Q15116) (assay: Jurkat-PD-1 Cell Binding High-Content Screening Assay (CBA)). Conditions: Jurkat-hPD-1 cells, PE-labeled PD-L1-Ig 20 nM final; read-out: Jurkat HPD1 PDL1 IC50.
T1 construct: expressed in transfected cells; host or cells: Jurkat
T1 sequence (Q15116 25-288): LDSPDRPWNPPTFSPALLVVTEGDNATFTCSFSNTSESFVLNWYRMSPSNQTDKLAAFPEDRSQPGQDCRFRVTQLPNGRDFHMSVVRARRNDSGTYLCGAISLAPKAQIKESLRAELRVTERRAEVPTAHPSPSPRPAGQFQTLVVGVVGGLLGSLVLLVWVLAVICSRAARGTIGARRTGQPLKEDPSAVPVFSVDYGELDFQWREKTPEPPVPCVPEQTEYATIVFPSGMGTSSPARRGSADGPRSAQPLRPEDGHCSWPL
Summary of the method: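 Binding of 20 nM (final) PE-tagged PD-L1-Ig to compound-pretreated Jurkat-hPD-1 cells was measured by high-content imaging after 1 h. Pretreatment ran 2 h at 37 °C in DMEM with 10% fetal calf serum.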
With `Cc1cccc(C[C@@H]2NC(=O)[C@H](CC(=O)O)NC(=O)[C@H](Cc3ccc(OCC(=O)O)cc3)NC(=O)[C@H](CCCNC(=N)N)NC(=O)CSC[C@@H](C(=O)N[C@@H](CCN)C(=O)NCCCCCCCCCCC(=O)O)NC(=O)[C@H]([C@@H](C)O)NC(=O)[C@H](C(C)C)NC(=O)[C@H](CC3CCCCC3)NC(=O)[C@H](CCN)NC(=O)[C@@H](CC(C)C)NC(=O)[C@H](C)N(C)C(=O)[C@H](CCCNC(N)=O)NC(=O)[C@H](Cc3ccc(-c4ccccc4)cc3)NC(=O)[C@H](Cc3ccc(O)cc3)NC2=O)c1` [Example 1355] ({CH2CO}-RY(Carboxymethyl)D[Phe(3-Me)]Y[Bip][Cit][NMeA][dL][Dab][Cha]VTC[Dab][Aun]-OH; thioether N-14) the IC50 was 5.1 nM. `Cc1cccc(C[C@@H]2NC(=O)[C@H](CC(=O)O)NC(=O)[C@H](Cc3ccc(OCC(=O)O)cc3)NC(=O)[C@H](CN)NC(=O)CSC[C@@H](C(=O)N[C@@H](CCN)C(=O)NCCCCCCCCCCC(=O)O)NC(=O)[C@H]([C@@H](C)O)NC(=O)[C@H](C(C)C)NC(=O)[C@H](CC3CCCCC3)NC(=O)[C@H](CCN)NC(=O)[C@@H](CC(C)C)NC(=O)[C@H](C)N(C)C(=O)[C@H](CCCNC(N)=O)NC(=O)[C@H](Cc3ccc(-c4ccccc4)cc3)NC(=O)C(C(C)C)NC2=O)c1` (stereo partly drawn) [Example 1356] ({CH2CO}-[Dap]Y(Carboxymethyl)D[Phe(3-Me)][ξV][Bip][Cit][NMeA][dL][Dab][Cha]VTC[Dab][Aun]-OH; thioether N-14) was tested, and the IC50 was 14.6 nM. With `Cc1cccc(C[C@@H]2NC(=O)[C@H](CC(=O)O)NC(=O)[C@H](Cc3ccncc3)NC(=O)[C@H](Cc3ccc(OCC(=O)O)cc3)NC(=O)CSC[C@@H](C(=O)N[C@@H](CCN)C(=O)NCCOCCOCC(=O)NCCCCCCCCCCC(=O)O)NC(=O)[C@H]([C@@H](C)O)NC(=O)[C@H](C(C)C)NC(=O)[C@H](CC3CCCCC3)NC(=O)[C@H](CC(N)=O)NC(=O)[C@@H](CC(C)C)NC(=O)[C@H](C)N(C)C(=O)[C@H](Cc3ccc(OCC(=O)O)cc3)NC(=O)[C@H](Cc3ccc(-c4ccccc4)cc3)NC(=O)[C@H](Cc3ccc(OCC(=O)O)cc3)NC2=O)c1` [Example 1357] ({CH2CO}-Y(Carboxymethyl)[4Pal]D[Phe(3-Me)]Y(Carboxymethyl)[Bip]Y(Carboxymethyl)[NMeA][dL]N[Cha]VTC[Dab][AEEA][Aun]-OH; thioether N-14) the IC50 was 20.5 nM. For `Cc1cccc(C[C@@H]2NC(=O)[C@H](CC(=O)O)NC(=O)[C@H](Cc3ccncc3)NC(=O)[C@H](Cc3ccc(OCC(=O)O)cc3)NC(=O)CSC[C@@H](C(=O)N[C@@H](CCCN)C(=O)NCCOCCOCC(=O)NCCCCCCCCCCC(=O)O)NC(=O)[C@H]([C@@H](C)O)NC(=O)[C@H](C(C)C)NC(=O)[C@H](CC3CCCCC3)NC(=O)[C@H](CC(N)=O)NC(=O)[C@@H](CC(C)C)NC(=O)[C@H](C)N(C)C(=O)[C@H](Cc3ccc(OCC(=O)O)cc3)NC(=O)[C@H](Cc3ccc(-c4ccccc4)cc3)NC(=O)[C@H](Cc3ccc(OCC(=O)O)cc3)NC2=O)c1` [Example 1358] ({CH2CO}-Y(Carboxymethyl)[4Pal]D[Phe(3-Me)]Y(Carboxymethyl)[Bip]Y(Carboxymethyl)[NMeA][dL]N[Cha]VTC[Orn][AEEA][Aun]-OH; thioether N-14), the IC50 was 45.6 nM. `Cc1cccc(C[C@@H]2NC(=O)[C@H](CC(=O)O)NC(=O)[C@H](Cc3ccncc3)NC(=O)[C@H](Cc3ccc(OCC(=O)O)cc3)NC(=O)CSC[C@@H](C(=O)N[C@@H](CCN)C(=O)NCCOCCOCC(=O)NCCCCCCCCCCC(=O)O)NC(=O)[C@H](CCCN)NC(=O)[C@H](C(C)C)NC(=O)[C@H](CC3CCCCC3)NC(=O)[C@H](CC(N)=O)NC(=O)[C@@H](CC(C)C)NC(=O)[C@H](C)N(C)C(=O)[C@H](Cc3ccc(OCC(=O)O)cc3)NC(=O)[C@H](Cc3ccc(-c4ccccc4)cc3)NC(=O)[C@H](Cc3ccc(OCC(=O)O)cc3)NC2=O)c1` [Example 1359] ({CH2CO}-Y(Carboxymethyl)[4Pal]D[Phe(3-Me)]Y(Carboxymethyl)[Bip]Y(Carboxymethyl)[NMeA][dL]N[Cha]V[Orn]C[Dab][AEEA][Aun]-OH; thioether N-14) was tested, and the IC50 was 23.2 nM. `Cc1cccc(C[C@@H]2NC(=O)[C@H](CC(=O)O)NC(=O)[C@H](Cc3ccncc3)NC(=O)[C@H](Cc3ccc(OCC(=O)O)cc3)NC(=O)CSC[C@@H](C(=O)N[C@@H](CCN)C(=O)NCCOCCOCC(=O)NCCCCCCCCCCC(=O)O)NC(=O)[C@H]([C@@H](C)O)NC(=O)[C@H](C(C)C)NC(=O)[C@H](CC3CCCCC3)NC(=O)[C@H](CCN)NC(=O)[C@@H](CC(C)C)NC(=O)[C@H](C)N(C)C(=O)[C@H](Cc3ccc(OCC(=O)O)cc3)NC(=O)[C@H](Cc3ccc(-c4ccccc4)cc3)NC(=O)[C@H](Cc3ccc(OCC(=O)O)cc3)NC2=O)c1` [Example 1360] ({CH2CO}-Y(Carboxymethyl)[4Pal]D[Phe(3-Me)]Y(Carboxymethyl)[Bip]Y(Carboxymethyl)[NMeA][dL][Dab][Cha]VTC[Dab][AEEA][Aun]-OH; thioether N-14) showed an IC50 of 8.6 nM. Work on `Cc1cccc(C[C@@H]2NC(=O)[C@H](CC(=O)O)NC(=O)[C@H](Cc3ccncc3)NC(=O)[C@H](Cc3ccc(OCC(=O)O)cc3)NC(=O)CSC[C@@H](C(=O)N[C@@H](CCCN)C(=O)NCCOCCOCC(=O)NCCCCCCCCCCC(=O)O)NC(=O)[C@H]([C@@H](C)O)NC(=O)[C@H](C(C)C)NC(=O)[C@H](CC3CCCCC3)NC(=O)[C@H](CCN)NC(=O)[C@@H](CC(C)C)NC(=O)[C@H](C)N(C)C(=O)[C@H](Cc3ccc(OCC(=O)O)cc3)NC(=O)[C@H](Cc3ccc(-c4ccccc4)cc3)NC(=O)[C@H](Cc3ccc(OCC(=O)O)cc3)NC2=O)c1` [Example 1361] ({CH2CO}-Y(Carboxymethyl)[4Pal]D[Phe(3-Me)]Y(Carboxymethyl)[Bip]Y(Carboxymethyl)[NMeA][dL][Dab][Cha]VTC[Orn][AEEA][Aun]-OH; thioether N-14) yielded an IC50 of 16.1 nM. Work on `Cc1cccc(C[C@@H]2NC(=O)[C@H](CC(=O)O)NC(=O)[C@H](Cc3ccc(OCC(=O)O)cc3)NC(=O)[C@H]([C@@H](C)O)NC(=O)CSC[C@@H](C(=O)N[C@@H](CCN)C(=O)NCCOCCOCC(=O)NCCCCCCCCCCC(=O)O)NC(=O)[C@H]([C@@H](C)O)NC(=O)[C@H](C(C)C)NC(=O)[C@H](CC3CCCCC3)NC(=O)[C@H](CC(N)=O)NC(=O)[C@@H](CC(C)C)NC(=O)[C@H](C)N(C)C(=O)[C@H](Cc3ccc(OCC(=O)O)cc3)NC(=O)[C@H](Cc3ccc(-c4ccccc4)cc3)NC(=O)[C@H](Cc3ccc(OCC(=O)O)cc3)NC2=O)c1` [Example 1362] ({CH2CO}-TY(Carboxymethyl)D[Phe(3-Me)]Y(Carboxymethyl)[Bip]Y(Carboxymethyl)[NMeA][dL]N[Cha]VTC[Dab][AEEA][Aun]-OH; thioether N-14) yielded an IC50 of 25.1 nM. `Cc1cccc(C[C@@H]2NC(=O)[C@H](CC(=O)O)NC(=O)[C@H](Cc3ccc(OCC(=O)O)cc3)NC(=O)[C@H]([C@@H](C)O)NC(=O)CSC[C@@H](C(=O)N[C@@H](CCN)C(=O)NCCOCCOCC(=O)NCCCCCCCCCCC(=O)O)NC(=O)[C@H](CCCN)NC(=O)[C@H](C(C)C)NC(=O)[C@H](CC3CCCCC3)NC(=O)[C@H](CC(N)=O)NC(=O)[C@@H](CC(C)C)NC(=O)[C@H](C)N(C)C(=O)[C@H](Cc3ccc(OCC(=O)O)cc3)NC(=O)[C@H](Cc3ccc(-c4ccccc4)cc3)NC(=O)[C@H](Cc3ccc(OCC(=O)O)cc3)NC2=O)c1` [Example 1363] ({CH2CO}-TY(Carboxymethyl)D[Phe(3-Me)]Y(Carboxymethyl)[Bip]Y(Carboxymethyl)[NMeA][dL]N[Cha]V[Orn]C[Dab][AEEA][Aun]-OH; thioether N-14) gave an IC50 of 25.3 nM. With `Cc1cccc(C[C@@H]2NC(=O)[C@H](CC(=O)O)NC(=O)[C@H](Cc3ccc(OCC(=O)O)cc3)NC(=O)[C@H]([C@@H](C)O)NC(=O)CSC[C@@H](C(=O)N[C@@H](CCN)C(=O)NCCOCCOCC(=O)NCCCCCCCCCCC(=O)O)NC(=O)[C@H](CCC(=O)O)NC(=O)[C@H](C(C)C)NC(=O)[C@H](CC3CCCCC3)NC(=O)[C@H](CC(N)=O)NC(=O)[C@@H](CC(C)C)NC(=O)[C@H](C)N(C)C(=O)[C@H](Cc3ccc(OCC(=O)O)cc3)NC(=O)[C@H](Cc3ccc(-c4ccccc4)cc3)NC(=O)[C@H](Cc3ccc(OCC(=O)O)cc3)NC2=O)c1` [Example 1364] ({CH2CO}-TY(Carboxymethyl)D[Phe(3-Me)]Y(Carboxymethyl)[Bip]Y(Carboxymethyl)[NMeA][dL]N[Cha]VEC[Dab][AEEA][Aun]-OH; thioether N-14) the IC50 was 49.5 nM. `Cc1cccc(C[C@@H]2NC(=O)[C@H](CC(=O)O)NC(=O)[C@H](Cc3ccc(OCC(=O)O)cc3)NC(=O)[C@H]([C@@H](C)O)NC(=O)CSC[C@@H](C(=O)N[C@@H](CCCN)C(=O)NCCOCCOCC(=O)NCCCCCCCCCCC(=O)O)NC(=O)[C@H]([C@@H](C)O)NC(=O)[C@H](C(C)C)NC(=O)[C@H](CC3CCCCC3)NC(=O)[C@H](CC(N)=O)NC(=O)[C@@H](CC(C)C)NC(=O)[C@H](C)N(C)C(=O)[C@H](Cc3ccc(OCC(=O)O)cc3)NC(=O)[C@H](Cc3ccc(-c4ccccc4)cc3)NC(=O)[C@H](Cc3ccc(OCC(=O)O)cc3)NC2=O)c1` [Example 1365] ({CH2CO}-TY(Carboxymethyl)D[Phe(3-Me)]Y(Carboxymethyl)[Bip]Y(Carboxymethyl)[NMeA][dL]N[Cha]VTC[Orn][AEEA][Aun]-OH; thioether N-14) showed an IC50 of 59.7 nM. `Cc1cccc(C[C@@H]2NC(=O)[C@H](CC(=O)O)NC(=O)[C@H](Cc3ccc(OCC(=O)O)cc3)NC(=O)[C@H]([C@@H](C)O)NC(=O)CSC[C@@H](C(=O)N[C@@H](CCCN)C(=O)NCCOCCOCC(=O)NCCCCCCCCCCC(=O)O)NC(=O)[C@H](CCC(=O)O)NC(=O)[C@H](C(C)C)NC(=O)[C@H](CC3CCCCC3)NC(=O)[C@H](CC(N)=O)NC(=O)[C@@H](CC(C)C)NC(=O)[C@H](C)N(C)C(=O)[C@H](Cc3ccc(OCC(=O)O)cc3)NC(=O)[C@H](Cc3ccc(-c4ccccc4)cc3)NC(=O)[C@H](Cc3ccc(OCC(=O)O)cc3)NC2=O)c1` [Example 1366] ({CH2CO}-TY(Carboxymethyl)D[Phe(3-Me)]Y(Carboxymethyl)[Bip]Y(Carboxymethyl)[NMeA][dL]N[Cha]VEC[Orn][AEEA][Aun]-OH; thioether N-14) was tested, and the IC50 was 128 nM.

Reference: patent US20260070945A1, “MACROCYCLIC IMMUNOMODULATORS” (Bristol-Myers Squibb Company, priority 2022, published 2026)
